Experimental data published in PubChem BioAssay (NCI).
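All cell lines were grown in 96-well plates and treated with compound for 48 hours. GI50: concentration for 50% inhibition of growth. The concentration for full growth arrest is given as TGI.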

What was measured:
Experiment in all cases: NCI-60 cell line screen, 48 h
[1] = system: HL-60(TB) leukemia
[2] = system: SNB-19 CNS
[3] = system: KM12 colon
[4] = system: HOP-92 NSCLC
[5] = system: T-47D breast
[6] = system: A498 renal
[7] = system: SNB-75 CNS
[8] = system: UACC-62 melanoma
[9] = system: CCRF-CEM leukemia
[10] = system: HS 578T breast
[11] = system: RPMI-8226 leukemia
[12] = system: NCI-H23 lung
[13] = system: K-562 leukemia
[14] = system: NCI/ADR-RES ovarian
[15] = system: U251 CNS
[16] = system: EKVX NSCLC
[17] = system: ACHN renal
[18] = system: NCI-H460 lung
[19] = system: OVCAR-8 ovarian
[20] = system: PC-3 prostate
[21] = system: MALME-3M melanoma
[22] = system: IGROV1 ovarian
[23] = system: OVCAR-4 ovarian
[24] = system: 786-0 renal
[25] = system: LOX IMVI melanoma
[26] = system: SF-539 CNS
[27] = system: UACC-257 melanoma
[28] = system: SF-295 CNS
[29] = system: SN12C renal
[30] = system: SK-MEL-28 melanoma
[31] = system: RXF 393 renal
[32] = system: HCT-116 colon
[33] = system: MDA-MB-468 breast
[34] = system: MOLT-4 leukemia
[35] = system: CAKI-1 renal
[36] = system: SK-MEL-2 melanoma
[37] = system: HT29 colon
[38] = system: HCC-2998 colon
[39] = system: MCF7 breast
[40] = system: MDA-MB-435
[41] = system: M14 melanoma
[42] = system: A549 NSCLC
[43] = system: SK-MEL-5 melanoma
[44] = system: DU-145 prostate
[45] = system: HOP-62 NSCLC
[46] = system: TK-10 renal
[47] = system: SF-268 CNS
[48] = system: OVCAR-3 ovarian
[49] = system: SK-OV-3 ovarian
[50] = system: SW-620 colon
[51] = system: NCI-H522 lung
[52] = system: OVCAR-5 ovarian
[53] = system: NCI-H226 lung
[54] = system: BT-549 breast
[55] = system: HCT-15 colon
[56] = system: COLO 205 colon
[57] = system: SR leukemia
[58] = system: UO-31 renal
[59] = system: MDA-MB-231 breast

Cc1cc(C)cc(Oc2cccc(-c3c(C)nnn3C3CCN(CCN(C)C)CC3)n2)c1 was tested, and the GI50 [1] was 0.134 µM, the TGI [1] was 1.18 µM and the GI50 [2] was 5.51 µM. For the same molecule, the TGI [2] was 20.8 µM, the GI50 [3] was 2.72 µM and the TGI [3] was 16.6 µM. For the same molecule, the GI50 [4] was 0.455 µM, the TGI [4] was 15.4 µM and the GI50 [5] was 2 µM. For the same molecule, the TGI [5] was 24.3 µM, the GI50 [6] was 1.45 µM and the TGI [6] was 7.52 µM. The GI50 [7] was 0.59 µM, the TGI [7] was 8.53 µM and the GI50 [8] was 0.554 µM. The TGI [8] was 5.24 µM, the GI50 [9] was 0.951 µM and the TGI [9] was 5.13 µM. It also gave a GI50 [10] of 1.77 µM, a TGI [10] of 9.43 µM and a GI50 [11] of 0.378 µM. It also gave a TGI [11] of 2.78 µM, a GI50 [12] of 3.43 µM and a TGI [12] of 16.1 µM. For the same molecule, the GI50 [13] was 0.671 µM, the TGI [13] was 6.82 µM and the GI50 [14] was 2.63 µM. The TGI [14] was 14.3 µM, the GI50 [15] was 3.16 µM and the TGI [15] was 15.3 µM. The GI50 [16] was 4.8 µM, the TGI [16] was 21.1 µM and the GI50 [17] was 2.01 µM. It also gave a TGI [17] of 15.7 µM, a GI50 [18] of 2.45 µM and a TGI [18] of 13.1 µM. The GI50 [19] was 1.88 µM, the TGI [19] was 13.7 µM and the GI50 [20] was 2.07 µM. The TGI [20] was 17.2 µM, the GI50 [21] was 2.08 µM and the TGI [21] was 13.7 µM. It also gave a GI50 [22] of 5.15 µM, a TGI [22] of 18.7 µM and a GI50 [23] of 3.1 µM. For the same molecule, the TGI [23] was 21 µM, the GI50 [24] was 0.939 µM and the TGI [24] was 3.89 µM. For the same molecule, the GI50 [25] was 1.28 µM, the TGI [25] was 7.21 µM and the GI50 [26] was 1.71 µM. For the same molecule, the TGI [26] was 8.22 µM, the GI50 [27] was 1.48 µM and the TGI [27] was 15.8 µM. The GI50 [28] was 4.72 µM, the TGI [28] was 19.4 µM and the GI50 [29] was 4.27 µM. The TGI [29] was 18.6 µM, the GI50 [30] was 3.9 µM and the TGI [30] was 18.7 µM. For the same molecule, the GI50 [31] was 3.52 µM, the TGI [31] was 12.6 µM and the GI50 [32] was 1.41 µM. For the same molecule, the TGI [32] was 10.1 µM, the GI50 [33] was 1.07 µM and the TGI [33] was 3.73 µM. The GI50 [34] was 1.85 µM, the TGI [34] was 6.74 µM and the GI50 [35] was 0.745 µM. For the same molecule, the TGI [35] was 15.6 µM, the GI50 [36] was 2.4 µM and the TGI [36] was 12.5 µM. It also gave a GI50 [37] of 0.742 µM, a TGI [37] of 5.54 µM and a GI50 [38] of 4.15 µM. The TGI [38] was 17.8 µM, the GI50 [39] was 0.715 µM and the TGI [39] was 12.3 µM. It also gave a GI50 [40] of 1.6 µM, a TGI [40] of 14.3 µM and a GI50 [41] of 1.08 µM. It also gave a TGI [41] of 11.5 µM, a GI50 [42] of 1.46 µM and a TGI [42] of 12.9 µM. For the same molecule, the GI50 [43] was 1.4 µM, the TGI [43] was 4.95 µM and the GI50 [44] was 12.3 µM. For the same molecule, the TGI [44] was 34 µM, the GI50 [45] was 1.13 µM and the TGI [45] was 12.9 µM. The GI50 [46] was 0.707 µM, the TGI [46] was 13.1 µM and the GI50 [47] was 4.56 µM. For the same molecule, the TGI [47] was 20.1 µM, the GI50 [48] was 1.66 µM and the TGI [48] was 6.66 µM. For the same molecule, the GI50 [49] was 0.893 µM, the TGI [49] was 3.52 µM and the GI50 [50] was 2.73 µM. For the same molecule, the TGI [50] was 16.2 µM, the GI50 [51] was 1.23 µM and the TGI [51] was 4.41 µM. It also gave a GI50 [52] of 3.61 µM, a TGI [52] of 22.1 µM and a GI50 [53] of 2.44 µM. For the same molecule, the TGI [53] was 17.2 µM, the GI50 [54] was 1.67 µM and the TGI [54] was 3.65 µM. For the same molecule, the GI50 [55] was 1.41 µM, the TGI [55] was 11.2 µM and the GI50 [56] was 0.632 µM. For the same molecule, the TGI [56] was 10.8 µM.
N#Cc1c(-c2ccccc2Cl)cc(-c2ccc3ccccc3c2)[nH]c1=O was tested, and the GI50 [1] was greater than 100 µM, the TGI [1] was greater than 100 µM and the GI50 [2] was 18.5 µM. For the same molecule, the TGI [2] was 42.5 µM, the GI50 [3] was 88.4 µM and the TGI [3] was greater than 100 µM. For the same molecule, the GI50 [4] was 11.3 µM, the TGI [4] was 26.8 µM and the GI50 [5] was 27.3 µM. The TGI [5] was greater than 100 µM, the GI50 [6] was 15.9 µM and the TGI [6] was 34.3 µM. It also gave a GI50 [7] of 10.2 µM, a TGI [7] of 27.7 µM and a GI50 [8] of 27.9 µM. It also gave a TGI [8] greater than 100 µM, a GI50 [9] greater than 100 µM and a TGI [9] greater than 100 µM. For the same molecule, the GI50 [10] was 18.5 µM, the TGI [10] was 54.9 µM and the GI50 [11] was 76 µM. It also gave a TGI [11] greater than 100 µM, a GI50 [12] of 28.4 µM and a TGI [12] greater than 100 µM. The GI50 [13] was greater than 100 µM, the TGI [13] was greater than 100 µM and the GI50 [15] was 17.6 µM. It also gave a TGI [15] of 38.5 µM, a GI50 [16] of 31.4 µM and a TGI [16] greater than 100 µM. The GI50 [17] was 18.8 µM, the TGI [17] was 39.9 µM and the GI50 [18] was 22.2 µM. It also gave a TGI [18] of 56.9 µM, a GI50 [19] of 17.6 µM and a TGI [19] of 36.3 µM. The GI50 [20] was 41.1 µM, the TGI [20] was greater than 100 µM and the GI50 [21] was 16.3 µM. It also gave a TGI [21] of 35.7 µM, a GI50 [22] of 34.2 µM and a TGI [22] greater than 100 µM. It also gave a GI50 [23] of 17.2 µM, a TGI [23] of 38.9 µM and a GI50 [24] of 16.4 µM. For the same molecule, the TGI [24] was 30.8 µM, the GI50 [25] was 44.4 µM and the TGI [25] was greater than 100 µM. It also gave a GI50 [26] of 20.9 µM, a TGI [26] of 46 µM and a GI50 [27] of 22.2 µM. It also gave a TGI [27] of 71.9 µM, a GI50 [28] of 17.2 µM and a TGI [28] of 33.8 µM. The GI50 [29] was 31.7 µM, the TGI [29] was greater than 100 µM and the GI50 [30] was 28.1 µM. It also gave a TGI [30] greater than 100 µM, a GI50 [31] of 13.5 µM and a TGI [31] of 28.8 µM. For the same molecule, the GI50 [32] was 27.2 µM, the TGI [32] was 89.8 µM and the GI50 [33] was 23 µM. It also gave a TGI [33] of 73.2 µM, a GI50 [34] greater than 100 µM and a TGI [34] greater than 100 µM. For the same molecule, the GI50 [35] was 15.9 µM, the TGI [35] was 33.1 µM and the GI50 [36] was 14.9 µM. It also gave a TGI [36] of 32.5 µM, a GI50 [37] greater than 100 µM and a TGI [37] greater than 100 µM. The GI50 [38] was 53.1 µM, the TGI [38] was greater than 100 µM and the GI50 [39] was 38.1 µM. The TGI [39] was greater than 100 µM, the GI50 [40] was 27.8 µM and the TGI [40] was greater than 100 µM. It also gave a GI50 [41] of 20.1 µM, a TGI [41] of 54.9 µM and a GI50 [42] of 27.3 µM. For the same molecule, the TGI [42] was greater than 100 µM, the GI50 [57] was greater than 100 µM and the TGI [57] was greater than 100 µM. It also gave a GI50 [43] of 15.6 µM, a TGI [43] of 46.6 µM and a GI50 [44] of 36.1 µM. For the same molecule, the TGI [44] was greater than 100 µM, the GI50 [45] was 15.3 µM and the TGI [45] was 29.8 µM. For the same molecule, the GI50 [46] was 18.3 µM, the TGI [46] was 41.8 µM and the GI50 [47] was 28.4 µM. The TGI [47] was greater than 100 µM, the GI50 [48] was 24.2 µM and the TGI [48] was 94.3 µM. For the same molecule, the GI50 [49] was 15.9 µM, the TGI [49] was 32.4 µM and the GI50 [50] was 42 µM. It also gave a TGI [50] greater than 100 µM, a GI50 [51] of 68.2 µM and a TGI [51] greater than 100 µM. The GI50 [52] was 75.7 µM, the TGI [52] was greater than 100 µM and the GI50 [53] was 16.1 µM. It also gave a TGI [53] of 38.9 µM, a GI50 [58] of 16 µM and a TGI [58] of 34.9 µM. It also gave a GI50 [54] of 25.2 µM, a TGI [54] of 85.9 µM and a GI50 [59] of 20.3 µM. For the same molecule, the TGI [59] was 45.5 µM, the GI50 [55] was 84.8 µM and the TGI [55] was greater than 100 µM. For the same molecule, the GI50 [56] was 53.5 µM and the TGI [56] was greater than 100 µM.
